Assay results from patent publication US7498349B2, “Biaryl compounds having anti-infective activity” (Genesoft Pharmaceuticals, Inc., priority 2002, dated 2009).

Key:
[1] = system: S. aureus ATCC 27660; experiment: MIC, NCCLS broth microdilution assay; type: cell-based, Staphylococcus aureus; conditions: S. aureus ATCC 27660, methicillin resistant strain (MRSA)
[2] = system: E. coli ATCC 25922; experiment: MIC, NCCLS broth microdilution assay; type: cell-based, Escherichia coli; conditions: E. coli ATCC 25922
[3] = system: E. faecalis ATCC 29212; experiment: MIC, NCCLS broth microdilution assay; type: cell-based, Enterococcus faecalis; conditions: E. faecalis ATCC 29212
[4] = system: S. aureus ATCC 13709; experiment: MIC, NCCLS broth microdilution assay; type: cell-based, Staphylococcus aureus; conditions: S. aureus ATCC 13709, methicillin sensitive strain (MSSA)
[5] = system: C. albicans ATCC 38247; experiment: MIC, antifungal assay; type: cell-based, Candida albicans; conditions: C. albicans ATCC 38247
[6] = system: S. aureus ATCC 33591; experiment: MIC, NCCLS broth microdilution assay; type: cell-based, Staphylococcus aureus; conditions: S. aureus ATCC 33591
[7] = system: B. cereus ATCC 11778; experiment: MIC, NCCLS broth microdilution assay; type: cell-based, Bacillus cereus; conditions: B. cereus ATCC 11778
[8] = system: S. pneumoniae ATCC 49619; experiment: MIC, NCCLS broth microdilution assay; type: cell-based, Streptococcus pneumoniae; conditions: S. pneumoniae ATCC 49619

SMILES: Cc1ccc2oc(-c3ccc(NC(=O)c4nsc(NCCCN(C)C)c4Cl)cc3)cc2n1 [Compound A-55]
- Minimum Inhibitory Concentration (MIC) [1]: ++ (4 < MIC < 12)
- Minimum Inhibitory Concentration (MIC) [2]: >32 µg/mL
- Minimum Inhibitory Concentration (MIC) [3]: + (12 ≦ MIC ≦ 32)
- Minimum Inhibitory Concentration (MIC) [4]: ++ (4 < MIC < 12)
- Minimum Inhibitory Concentration (MIC) [5]: ++ (4 < MIC < 12)
- Minimum Inhibitory Concentration (MIC) [6]: + (12 ≦ MIC ≦ 32)
- Minimum Inhibitory Concentration (MIC) [7]: + (12 ≦ MIC ≦ 32)
- Minimum Inhibitory Concentration (MIC) [8]: + (12 ≦ MIC ≦ 32)

SMILES: NCCCCNc1snc(C(=O)Nc2ccc(-c3cc4ccccc4o3)nc2)c1Cl [Compound A-37]
- Minimum Inhibitory Concentration (MIC) [1]: +++ (MIC ≦ 4)
- Minimum Inhibitory Concentration (MIC) [2]: >32 µg/mL
- Minimum Inhibitory Concentration (MIC) [3]: ++ (4 < MIC < 12)
- Minimum Inhibitory Concentration (MIC) [4]: +++ (MIC ≦ 4)
- Minimum Inhibitory Concentration (MIC) [5]: + (12 ≦ MIC ≦ 32)
- Minimum Inhibitory Concentration (MIC) [6]: ++ (4 < MIC < 12)
- Minimum Inhibitory Concentration (MIC) [7]: >32 µg/mL
- Minimum Inhibitory Concentration (MIC) [8]: >32 µg/mL

SMILES: O=C(Nc1ccc(-c2cc3ccccc3[nH]2)cc1)c1nsc(NCCN2CCNCC2)c1Cl [Compound A-59]
- Minimum Inhibitory Concentration (MIC) [1]: ++ (4 < MIC < 12)
- Minimum Inhibitory Concentration (MIC) [2]: >32 µg/mL
- Minimum Inhibitory Concentration (MIC) [3]: +++ (MIC ≦ 4)
- Minimum Inhibitory Concentration (MIC) [4]: ++ (4 < MIC < 12)
- Minimum Inhibitory Concentration (MIC) [5]: +++ (MIC ≦ 4)
- Minimum Inhibitory Concentration (MIC) [6]: + (12 ≦ MIC ≦ 32)
- Minimum Inhibitory Concentration (MIC) [7]: + (12 ≦ MIC ≦ 32)
- Minimum Inhibitory Concentration (MIC) [8]: + (12 ≦ MIC ≦ 32)

SMILES: CN(CCCN)CCCNc1cc(Cl)ccc1C(=O)Nc1ccc(-c2cc3ccccc3o2)nc1 [Compound A-41]
- Minimum Inhibitory Concentration (MIC) [1]: +++ (MIC ≦ 4)
- Minimum Inhibitory Concentration (MIC) [2]: ++ (4 < MIC < 12)
- Minimum Inhibitory Concentration (MIC) [3]: +++ (MIC ≦ 4)
- Minimum Inhibitory Concentration (MIC) [4]: +++ (MIC ≦ 4)
- Minimum Inhibitory Concentration (MIC) [5]: ++ (4 < MIC < 12)
- Minimum Inhibitory Concentration (MIC) [6]: +++ (MIC ≦ 4)
- Minimum Inhibitory Concentration (MIC) [7]: ++ (4 < MIC < 12)
- Minimum Inhibitory Concentration (MIC) [8]: + (12 ≦ MIC ≦ 32)

SMILES: CN(C)CCCNc1snc(C(=O)Nc2ccc(-c3cc4ccccc4[nH]3)cc2)c1Cl [Compound A-57]
- Minimum Inhibitory Concentration (MIC) [1]: ++ (4 < MIC < 12)
- Minimum Inhibitory Concentration (MIC) [2]: >32 µg/mL
- Minimum Inhibitory Concentration (MIC) [3]: ++ (4 < MIC < 12)
- Minimum Inhibitory Concentration (MIC) [4]: ++ (4 < MIC < 12)
- Minimum Inhibitory Concentration (MIC) [5]: +++ (MIC ≦ 4)
- Minimum Inhibitory Concentration (MIC) [6]: + (12 ≦ MIC ≦ 32)
- Minimum Inhibitory Concentration (MIC) [7]: + (12 ≦ MIC ≦ 32)
- Minimum Inhibitory Concentration (MIC) [8]: >32 µg/mL

SMILES: O=C(Nc1ccc(-c2cc3ccccc3s2)nc1)c1nsc(NCCN2CCNCC2)c1Cl [Compound A-70]
- Minimum Inhibitory Concentration (MIC) [1]: +++ (MIC ≦ 4)
- Minimum Inhibitory Concentration (MIC) [2]: >32 µg/mL
- Minimum Inhibitory Concentration (MIC) [3]: +++ (MIC ≦ 4)
- Minimum Inhibitory Concentration (MIC) [4]: +++ (MIC ≦ 4)
- Minimum Inhibitory Concentration (MIC) [5]: +++ (MIC ≦ 4)
- Minimum Inhibitory Concentration (MIC) [6]: +++ (MIC ≦ 4)
- Minimum Inhibitory Concentration (MIC) [7]: >32 µg/mL
- Minimum Inhibitory Concentration (MIC) [8]: >32 µg/mL

SMILES: CN(C)CCCNc1snc(C(=O)Nc2ccc(-c3cc4ccccc4s3)nc2)c1Cl [Compound A-67]
- Minimum Inhibitory Concentration (MIC) [1]: +++ (MIC ≦ 4)
- Minimum Inhibitory Concentration (MIC) [2]: >32 µg/mL
- Minimum Inhibitory Concentration (MIC) [3]: +++ (MIC ≦ 4)
- Minimum Inhibitory Concentration (MIC) [4]: +++ (MIC ≦ 4)
- Minimum Inhibitory Concentration (MIC) [5]: +++ (MIC ≦ 4)
- Minimum Inhibitory Concentration (MIC) [6]: +++ (MIC ≦ 4)
- Minimum Inhibitory Concentration (MIC) [7]: +++ (MIC ≦ 4)
- Minimum Inhibitory Concentration (MIC) [8]: >32 µg/mL
